Laboratory results as given in US20220288207A1, “PHOTO INDUCED CONTROL OF PROTEIN DESTRUCTION” (Beth Israel Deaconess Medical Center, Inc., priority 2019, published 2022).
Entries after “also recorded” stand apart in the source; their conditions may differ.

What was measured:
IKZF1 [1] = molecular target: T1, IKZF1 (Homo sapiens, UniProt Q13422+Q96SW2); experiment: In vivo ubiquitination assay of IKZF1 by CRBN in HEK293T cells (Ni-NTA pull down); type: cell-based; parameters: expressed in transfected cells; host or cells: HEK293T; conditions: UVA irradiation (365 nm) 15 min
Procedure: Briefly, HEK293T cells were transfected with Flag-CRBN, His-ubiquitin and HA-IKZF1 or GFP-BRD2 or GFP-BRD3. 24 hours after transfection, pomalidomide, opto-pomalidomide, dBET1 or opto-dBET1 were added to the cell culture together with 10 μM MG132 for 12 hours and cells were harvested in denatured buffer A (6 M guanidine-HCl, pH 8.0, 0.1 M Na2HPO4/NaH2PO4, 10 mM imidazole). After sonication, the ubiquitinated proteins were purified by incubation with Ni-NTA matrices for 3 hours at room temperature. The pull-down products were washed sequentially twice in buffer A, twice in buffer ANTI mixture (buffer A: buffer TI=1:3) and once in buffer TI (25 mM Tris-HCl, pH 6.8, 20 mM imidazole). The poly-ubiquitinated proteins were separated by SDS-PAGE for immunoblot analysis.

[2] = Uncaging (photolysis) by UVA irradiation in vitro, UV-VIS absorption / UPLC-MS analysis; type: physicochemical; conditions: 1 mM, UVA 365 nm, time course
Procedure: HPLC spectra were acquired using an Agilent 1200 Series system with DAD detector for all the intermediates and Opto-PROTACs below. Chromatography was performed on a 2.1×150 mm Zorbax 300SB-C18 5 μm column with water containing 0.1% formic acid as solvent A and acetonitrile containing 0.1% formic acid as solvent B at a flow rate of 0.4 ml/min. The gradient program was as follows: 1% B (0-1 min), 1-99% B (1-4 min), and 99% B (4-8 min). High-resolution mass spectra (FIRMS) data were acquired in positive ion mode using an Agilent G1969A API-TOF with an electrospray ionization (ESI) source. Nuclear Magnetic Resonance (NMR) spectra were acquired on a Bruker DRX-600 spectrometer with 600 MHz for proton (^1H NMR) and 151 MHz for carbon (^13C NMR); chemical shifts are reported in (δ). Preparative HPLC was performed on Agilent Prep 1200 series with UV detector set to 254 nm. Samples were injected onto a Phenomenex Luna 250×30 mm, 5 μm, C18 column at room temperature. The flow rate was 40 ml/min. A linear gradient was used with 10% of acetonitrile (A) in H2O (with 0.1% TFA) (B) to 100% of acetonitrile (A). HPLC was used to establish the purity of target compounds. All final compounds had >95% purity using the HPLC methods described above.
(§1) UV-Vis spectrometry was performed on a NanoDrop-2000 UV-Visible Spectrophotometer. Pomalidomide, opto-pomalidomide, dBET1, opto-dBET1, dALK and opto-dALK were dissolved in DMSO and diluted to indicated concentration, followed by UVA irradiation for indicated duration of time. Then the samples were subjected to UV-Vis spectrometry analysis. Pomalidomide and opto-pomalidomide mixture solutions were made with the indicated ratio. Absorption values at 364 nm were measured to draw standard curve. dBET1 and opto-dBET1 mixture solution were made with the indicated ratios. Absorption values at 340 nm were measured to draw standard curve. dALK and opto-dALK mixture solution were made with indicated ratio. Absorption values at 370 nm were measured to draw standard curve.

IKZF1/3 = IKZF1/3 degradation, immunoblot of MM1S cells; type: cell-based
Procedure: (§2) MM.1S, MT2, C4-2, NCI-H2228 and NCI-H3122 cells were cultured in RPMI1640 containing 10% fetal bovine serum (FBS), 100 Units of penicillin and 100 μg/ml streptomycin. […] For UVA irradiation, cells were pretreated with opto-PROTACs for 2-4 hours, and then subjected to UVA irradiation for indicated durations.
(§3) Cells were lysed in EBC lysis buffer (50 mM Tris pH 7.5, 120 mM NaCl, 0.5% NP-40), supplemented with protease inhibitors (cOmplete Mini, Roche) and phosphatase inhibitors (phosphatase inhibitor cocktail set I and II, Calbiochem). The protein concentrations of the lysates were measured using the Bio-Rad protein assay reagent on a Beckman Coulter DU-800 spectrophotometer. The lysates were then resolved by sodium dodecylsulfate-polyacrylamide gel ectrophoresis (SDS-PAGE) and immunoblotted with indicated antibodies. For immunoprecipitation, 1 mg lysates were incubated with the appropriate sepharose beads for 4 h at 4° C. Immuno-complexes were washed four times with NETN lysis buffer (20 mM Tris, pH 8.0, 100 mM NaCl, 1 mM EDTA and 0.5% NP-40) before being resolved by SDS-PAGE and immunoblotted with indicated antibodies.

[3] = UV-VIS absorption spectrum; type: physicochemical; conditions: in DMSO
Procedure: as §1

MT2 cells = experiment: CCK-8 cell viability assay, MT2 cells; type: cell-based; conditions: UVA irradiation (365 nm) 15 min
Procedure: (§4) Human embryonic kidney 293T (HEK293T) cells and HEK293FT were maintained in Dulbecco's Modified Eagle's Medium (DMEM) containing 10% fetal bovine serum (FBS), 100 Units of penicillin and […] streptomycin. MM.1S, MT2, C4-2, NCI-H2228 and NCI-H3122 cells were cultured in RPMI1640 containing 10% fetal bovine serum (FBS), 100 Units of penicillin and 100 μg/ml streptomycin. 293FT^CRBN+/+, 293FT^CRBN+/+ , MM.1S^CRBN+/+ and MM.1S^CRBN−/− cells were provided Dr. William G. Kaelin (Dana-Farber Cancer Institute). For UVA irradiation, cells were pretreated with opto-PROTACs for 2-4 hours, and then subjected to UVA irradiation for indicated durations.
(§5) Cell in 96-well plates were incubated with 10 ul/well of CCK-8 solution and incubated for 2 hours, followed by the measurement of optical density using a microplate reader with a 450 nm filter (O.D. 450).

CRBN and IKZF1 = molecular target: T2, CRBN and IKZF1 (Homo sapiens, UniProt Q13422+Q96SW2); experiment: CRBN-IKZF1 interaction, Flag-IP and immunoblot in HEK293T cells; type: cell-based; conditions: 10 μM MG132 12 hours
T2 construct: expressed in transfected cells; host or cells: HEK293T
Procedure: as §2, §3

CRBN = molecular target: T3, CRBN (Homo sapiens, UniProt Q96SW2); experiment: Competitive binding in vitro pull-down assay (biotin-pomalidomide pulls down Flag-CRBN)
T3 construct: made in house; host or cells: HEK293T
Procedure: Flag-CRBN was expressed in HEK293T cells lysed in PROTAC buffer B (50 mM Tris pH 7.5, 150 mM NaCl, 0.5% NP-40) supplemented with protease inhibitors (cOmplete Mini, Roche) and phosphatase inhibitors (phosphatase inhibitor cocktail set I and II, Calbiochem). 3mg cell lysis was incubated with 10 μl 10mM biotin-pomalidomide and […] streptavidin beads for 1 h at 4° C. in the absence or presence of pomalidomide or opto-pomalidomide. Then, the beads were washed four times with NETN buffer (20 mM Tris, pH 8.0, 100 mM NaCl, 1 mM EDTA and 0.5% NP-40) before being resolved by SDS-PAGE and immunoblotted with indicated antibodies.

MM1S cells = experiment: CCK-8 cell viability assay, MM1S cells; type: cell-based; conditions: MM1S cells, UVA irradiation (365 nm) 15 min
Procedure: as §4, §5

IKZF1 [4] = molecular target: T1, IKZF1; experiment: IKZF1 degradation, immunoblot of MT2 cells; type: cell-based; parameters: endogenous in cells; host or cells: MT2; conditions: with UVA irradiation
Procedure: as §4
as §3, with “Immuno-complexes were washed four times with NETN lysis buffer (20 mM Tris, pH 8.0, 100 mM NaCl, 1 mM EDTA and 0.5% NP-40) before being resolved by SDS-PAGE and immunoblotted with indicated antibodies.” left out

maximum in absorption of UV-VIS absorption spectrum [3]: 364 nm | binding with CRBN (CRBN; after UVA irradiation (365 nm, 30 min)): regained ability to bind with CRBN | binding with CRBN (CRBN; without UVA irradiation): ineffective to bind with CRBN in vitro | degradation of IKZF1 (IKZF1 [4]): mediate IKZF1 degradation in MT2 cells
SMILES: COc1cc(COC(=O)N2C(=O)CCC(N3C(=O)c4cccc(N)c4C3=O)C2=O)c([N+](=O)[O-])cc1OC (stereo not drawn) [opto-pomalidomide, 4,5-dimethoxy-2-nitrobenzyl 3-(4-amino-1,3-dioxoisoindolin-2-yl)-2,6-dioxopiperidine-1-carboxylate]
ubiquitination of IKZF1 by CRBN (IKZF1 [1]): leading to CRBN-mediated IKZF1 ubiquitination | uncaging (photolysis) by UVA irradiation in vitro [2]: could be induced to undergo photolysis by UVA irradiation in vitro | degradation of IKZF1/3 (IKZF1/3; MM1S cells, UVA irradiation (365 nm) for different durations): occurred in a drug-dose and UVA-dose dependent manner | degradation of IKZF1/3 (IKZF1/3; MM1S-CRBN+/+ vs. MM1S-CRBN−/− cells, 12 hours, without UVA irradiation, opto-drug up to 10-fold excess): lost this function without UVA irradiation | cell proliferation (CCK-8) (MT2 cells): inhibits MT2 cell proliferation in a dose-dependent manner | interaction between CRBN and IKZF1 (CRBN and IKZF1; UVA irradiation (365 nm) 15 min): regained the ability to promote the binding between CRBN and IKZF 1 | interaction between CRBN and IKZF1 (CRBN and IKZF1; without UVA irradiation): ineffective in guiding the protein-protein interaction between CRBN and IKZF1 | cell proliferation (CCK-8) (MM1S cells): largely dependent on UVA irradiation; also recorded: inhibits MM1S cell proliferation in a dose-dependent manner
